From ChEMBL document CHEMBL1158109, “Cytotoxic cis-fused bicyclic sesquiterpenoids from Jatropha neopauciflora” (J Nat Prod, 2006)

Columns and labels:
[1] = tested on: U-251; test: Cytotoxicity against human U251 cells after 48 hrs by SRB assay; format: functional, cell-based; settings: U-251, 48 h
[2] = tested on: K562; test: Cytotoxicity against human K-562 cells after 48 hrs by SRB assay; format: functional, cell-based; settings: K562, 48 h

SMILES	IC50 [1]	IC50 [2]
C=C(C)[C@@H]1CC[C@@]2(C)[C@H]1[C@H]1CC[C@@H]3[C@@]4(C)CC[C@H](OC(=O)/C=C/c5ccc(O)cc5)C(C)(C)[C@@H]4CC[C@@]3(C)[C@]1(C)C[C@@H]2O	41 µM	–
C=C(C)[C@@H]1CC[C@@]2(C)[C@H]1[C@H]1CCC3[C@@]4(C)CC[C@H](O)C(C)(C)[C@@H]4CC[C@@]3(C)[C@]1(C)C[C@@H]2O (stereo not given in full) [CALENDULADIOL]	48.4 µM	31.4 µM
COc1cccc2c1C(=O)c1c(O)c3c(c(O)c1C2=O)C[C@@](O)(C(=O)CO)C[C@@H]3O[C@H]1C[C@H](N)[C@H](O)[C@H](C)O1 [DOXORUBICIN]	0.32 µM	0.28 µM
